Test results published in patent US8680065B2, “Oligonucleotides of human endogenous retrovirus 9 (ERV-9) long terminal repeat (LTR) and methods of use” (The United States of America, as represented by the …, priority 2008, dated 2014).

Legend:
[1] = system: HT1080 cells (a fibrosarcoma cell line); assay: Cancer cell proliferation, oligonucleotide in LIPOFECTAMINE, 48 hours, direct cell counting; assay type: cell-based, human; details: P<0.05
Procedure: FIG. 1 is a graph showing the effect of sense and antisense ERV-9 U3 oligonucleotides (SEQ ID NOs: 1 and 2, respectively) on proliferation of HT1080 cells (a fibrosarcoma cell line). Cells (4×10^4) were treated with ERV-9 U3 sense or antisense oligonucleotide formulated in LIPOFECTAMINE™ at the concentrations shown for 48 hours. Green fluorescent protein (GFP) sense oligonucleotide (SEQ ID NO: 3) was used as a control to measure the non-specific cytotoxicity of phosphorothioate-based oligonucleotides. Antisense oligonucleotides specific for Bcl-2 (G3139; SEQ ID NO: 4), telomerase (GRN163; SEQ ID NO: 5) and MDM2 (SEQ ID NO: 6) were also evaluated. Cell proliferation levels were expressed relative to cells transfected with 10 μg/ml GFP oligonucleotide.
To test the effect of the sense and antisense ERV-9 U3 oligonucleotides on proliferation of cancer cells, six different cancer cell lines were selected for transfection studies: HT1080, fibrosarcoma cells (FIG. 1); MDA-231, breast cancer cells (FIG. 2); K562, myelogenous leukemia cells (FIG. 3); LNcaP, prostate cancer cells (FIG. 4); HepG2, hepatocellular carcinoma cells (FIG. 5); and MCF-7, breast cancer cells (FIG. 6). Cells (4×10^4) were treated with ERV-9 U3 sense or antisense oligonucleotide formulated in LIPOFECTAMINE™ at an oligonucleotide concentration of 10, 20 or 30 μg/ml for 48 hours. Green fluorescent protein (GFP) sense oligonucleotide ([…]; SEQ ID NO: 3) was used as a control to measure the non-specific cytotoxicity of phosphorothioate-based oligonucleotides. Antisense oligonucleotides specific for Bcl-2 (G3139; TCTCCCAGCGTGCGCCAT; SEQ ID NO: 4), telomerase (GRN163; TAGGGTTAGACAA; SEQ ID NO: 5), and MDM2 ([…]; SEQ ID NO: 6) were also evaluated. […] After 48 hours of oligonucleotide treatment, cell proliferation was assessed by direct cell counting. Cell proliferation levels were expressed relative to cells transfected with 10 μg/ml GFP control oligonucleotide.

HT1080 tumor xenografts = assay: Growth of human tumor xenografts in SCID mice; assay type: in vivo; details: HT1080 xenograft; for tumor growth, combination treatment with VP16: 50 μg oligonucleotide and 50 ng VP16 once per day; for tumor burden compared to treatment with G3139: 50 μg oligonucleotide per mouse; for tumor growth (tumor size): 50 μg oligonucleotide per mouse injected around tumor once per day
Procedure: (§1) FIG. 18A is a pair of graphs showing the effect of sense and antisense ERV-9 U3 oligonucleotides (SEQ ID NOs: 1 and 2, respectively) on growth of MDA-231 (top) and HT1080 (bottom) tumor xenografts in SCID mice. Mice were injected with 50 μg of the indicated oligonucleotides once per day for 14 days (MDA-231) or 7 days (HT1080).
(§2) FIG. 18B is a pair of graphs showing the effect of sense and antisense ERV-9 U3 oligonucleotides (SEQ ID NOs: 1 and 2, respectively) on growth of MDA-231 (top) and HT1080 (bottom) tumor xenografts in SCID mice in combination with VP16. Mice were injected with 50 μg of the indicated oligonucleotides and 50 ng of VP16 once per day for 24 days (MDA-231) or 14 days (HT1080).
(§3) CB-17 prkdc(SCID) male, 4- to 6-week-old SCID mice were purchased from the Jackson Laboratory. Cultured cells (MDA-231 or HT1080 cells) were washed with and resuspended in serum-free media. The suspension (2×10^6 cells in 0.2 ml per mouse) was then injected into the chest area of the mice. The mice were monitored by measuring tumor growth and body weight and by general clinical observation. When tumor size reached approximately 4×4 mm, tumor-bearing mice were randomly divided into multiple treatment and control groups (five mice per group). All oligonucleotides, dissolved in PBS, were injected into the surrounding area of the tumor at doses of 50 μg per mouse (approximately 2.5 mg/kg), one time per day, 5 days/week until the tumor size of the control injected tumors reached about 20×20 mm (2×2 cm). The tumors were dissected from mice and weighed with the investigator blinded as to the treatment group. In combination therapy, 50 μg of the oligonucleotide (approximately 2.5 mg/kg) and 50 ng of VP16 (approximately 2.5 μg/kg), both dissolved in PBS, were injected together (one time per day, 5 days/week) into the surrounding area of the tumor to all groups.

MDA-231 tumor xenografts = assay: Growth of human tumor xenografts in SCID mice; assay type: in vivo; details: MDA-231 xenograft; for tumor growth, combination treatment with VP16: 50 μg oligonucleotide and 50 ng VP16 once per day; for tumor burden compared to treatment with G3139: 50 μg oligonucleotide per mouse; for tumor growth (tumor size): 50 μg oligonucleotide per mouse injected around tumor once per day
Procedure: as §1, §2, §3

[2] = oligonucleotide 20 μg/ml and 30 μg/ml

Row | Substance | cell proliferation relative to GFP oligonucleotide ([1]; oligonucleotide 10 μg/ml) | cell proliferation relative to GFP oligonucleotide [1, 2] | tumor growth, combination treatment with VP16 (HT1080 tumor xenografts) | tumor burden compared to treatment with G3139 (HT1080 tumor xenografts) | tumor growth (tumor size) (HT1080 tumor xenografts) | tumor growth, combination treatment with VP16 (MDA-231 tumor xenografts) | tumor burden compared to treatment with G3139 (MDA-231 tumor xenografts) | tumor growth (tumor size) (MDA-231 tumor xenografts)
1 | U3AS: ERV-9 LTR U3 antisense oligonucleotide CTGATTGGTGTGTTTACAAACCTTGAG, phosphorothioate internucleoside linkages at each position (all phosphorothioate, sugars by position and methylation of C not given here) [Oligo U3AS] | inhibited cell proliferation better than GFP oligonucleotide | inhibited cell proliferation better than GFP control and G3139, GRN163 and MDM2 antisense oligonucleotides | inhibited tumor growth when co-administered with VP16 better than GFP oligonucleotide or G3139 antisense oligonucleotide | had reduced tumor burden for both MDA-231 and HT1080 tumors, although this did not reach statistical significance | inhibited tumor growth better than GFP oligonucleotide or G3139 antisense oligonucleotides | inhibited tumor growth when co-administered with VP16 better than GFP oligonucleotide or G3139 antisense oligonucleotide | had reduced tumor burden for both MDA-231 and HT1080 tumors, although this did not reach statistical significance | inhibited tumor growth better than GFP oligonucleotide or G3139 antisense oligonucleotides
2 | U3S: ERV-9 LTR U3 sense oligonucleotide CTCAAGGTTTGTAAACACACCAATCAG, phosphorothioate internucleoside linkages at each position (all phosphorothioate, sugars by position and methylation of C not given here) [Oligo U3S] | inhibited cell proliferation better than GFP oligonucleotide | inhibited cell proliferation better than GFP control and G3139, GRN163 and MDM2 antisense oligonucleotides | inhibited tumor growth when co-administered with VP16 better than GFP oligonucleotide or G3139 antisense oligonucleotide | had reduced tumor burden for both MDA-231 and HT1080 tumors, although this did not reach statistical significance | inhibited tumor growth better than GFP oligonucleotide or G3139 antisense oligonucleotides | inhibited tumor growth when co-administered with VP16 better than GFP oligonucleotide or G3139 antisense oligonucleotide | had reduced tumor burden for both MDA-231 and HT1080 tumors, although this did not reach statistical significance | inhibited tumor growth better than GFP oligonucleotide or G3139 antisense oligonucleotides
